Literature values, collected in patent US20070184105A1, “COMSPOSITION FOR STABLIZING EPIGALLOCATECHIN GALLATE (EGCG) IN WATER PHASE AND PREPARATION METHOD THEREOF” (DPI SOLUTIONS, INC., priority 2004, published 2007).

O=C(O[C@@H]1Cc2c(O)cc(O)cc2O[C@@H]1c1cc(O)c(O)c(O)c1)c1cc(O)c(O)c(O)c1 [EGCG, epigallocatechin gallate]
amount of EGCG that can be dissolved in water phase: about 4%
